Structures can show the parent of a compound that is named as a salt.
How the values were obtained:
[1] = Solubility test of crystal form A and crystal form B in a medium (Example 12); assay type: physicochemical; conditions: for Solubility (calculated by free base of the fused ring pyrimidine compound): in mg/mL (unit assumed); for solubility in pure water compared to free base: versus free base of the fused ring pyrimidine compound
Description: Example 12 Solubility Test of the Crystal Form A of the Fumarate of Fused Ring Pyrimidine Compound as Shown in Formula 2 and the Crystal Form B of the Adipate of Fused Ring Pyrimidine Compound as Shown in Formula 3 in a Medium

[2] = Dynamic vapor sorption analysis (DVS); assay type: physicochemical; conditions: 25° C., 0% to 95% relative humidity, weight percentage
Procedure: (§1) 10 mg of the crystal form A of the fumarate of fused ring pyrimidine compound as shown in formula 2 was weighed, and dried for 60 min under the condition of a temperature of 25° C. and a humidity of 0% RH, and then the humidity absorption characteristic of the sample was tested when the humidity changed from 0% RH to 95% RH, and the dehumidification characteristic of the sample was tested when the humidity changed from 95% RH to 0% RH. Each step length for the humidity changes was 5% RH, the balance standard was that the weight change rate was less than 0.01%/min within 5 min, and the longest balance time was 2 hours.
as §1, with “form B” for “form A”, “the adipate” for “the fumarate”, “formula 3” for “formula 2”

[3] = Stability test (total impurities, 20 days); assay type: physicochemical; conditions: for chemical stability in the condition of high temperature and high humidity / stability under light conditions versus the compound of formula 1: 20 days
Procedure: The crystal form A of the fumarate of fused ring pyrimidine compound as shown in formula 2, the crystal form B of the adipate of fused ring pyrimidine compound as shown in formula 3 and the fused ring pyrimidine compound as shown in formula 1 were subjected to tests at a high temperature of 60° C., 25° C./60% RH, 40° C./75% RH and highlight irradiation (4500 lx±500 lx), the test time was 20 days, the sample bottles were placed under different test conditions, and samples were taken at 0 and 20 days to detect the total amount of impurities, and the test results were shown in Table 8 below.

[4] = Pharmacokinetic experiment, single intragastric dose in rats; assay type: in vivo, SD rats; conditions: single dose 10 mg/kg, 0.5% MC and 0.5% Tween80 in water
Procedure: 1) Preparation of animals 9 healthy male SD rats, each with a body weight of 220-230 g, were taken, fed with standard formulated granulated feed for rats at fixed times every day, and fasted for 12 hours before the experiment, and feeding was resumed after 4 hours of administration. Rats were free to drink water before, after and during the experiment. 9 rats were randomly divided into 3 groups.
2) Formulation of drugs: The fused ring pyrimidine compound as shown in formula 1, the crystal form A of the fumarate of fused ring pyrimidine compound as shown in formula 2 and the crystal form B of the adipate of fused ring pyrimidine compound as shown in formula 3 were accurately weighed, and were formulated into a 1 mg/mL solution in water (Wahaha/111830) with 0.5% MC (Fluka/BCBK3534K) and 0.5% Tween80 (TCl/V4FSC), respectively.
3) Intragastric administration with single dose (10 mg/kg): in the first group, rats were intragastrically administered with a solution of the fused ring pyrimidine compound as shown in formula 1, in the second group, rats were intragastrically administered with a solution of the crystal form A of the fumarate of fused ring pyrimidine compound as shown in formula 2, and in the third group, rats were intragastrically administered with a solution of the crystal form B of the adipate of fused ring pyrimidine compound as shown in formula 3.
4) Collection of blood samples: About 150 μL of blood was taken from the fundus venous plexus before administration and 0.083, 0.25, 0.5, 1, 2, 4, 8 and 24 hours after administration from each rat in the three groups, and anticoagulated with K2EDTA, plasma was separated by centrifugation and the supernatant was collected for LC-MS analysis.

[5] = medium intestinal fluid in simulated fed state (FeSSIF)
[6] = medium pH 4 (50 mM phosphate buffer)
[7] = medium pH 6 (50 mM phosphate buffer)

COc1cc(F)ccc1-c1c(C)sc2cnc(Nc3cnn(C4CCNCC4)c3)nc12 [The crystal form A of the fumarate of fused ring pyrimidine ]
solubility in intestinal fluid (FeSSIF) in simulated fed state, in words ([1]; FeSSIF): high | pH value of sample solution for solubility ([1]; medium Purified water): 7.27 | Solubility (calculated by free base of the fused ring pyrimidine compound) ([1]; medium Purified water): 0.126 | pH value of sample solution for solubility [1, 5]: 5.19 | pH value of sample solution for solubility [1, 6]: 4.33 | Solubility (calculated by free base of the fused ring pyrimidine compound) [1, 6]: 0.159 | pH value of sample solution for solubility [1, 7]: 5.96 | solubility in pure water compared to free base [1]: significantly improved | DVS weight gain from 0% RH to 95% RH [2]: 0.2518% | Impurity content ([3]; Day 0): 0.25% | Impurity content ([3]; Day 20, 25° C/60% RH): 0.25% | Impurity content ([3]; Day 20, 40° C/75% RH): 0.28% | Impurity content ([3]; Day 20, 60° C): 0.25% | Impurity content ([3]; Day 20, Light (4500 lx±500 lx)): 0.46% | chemical stability in the condition of high temperature and high humidity [3]: good chemical stability | stability under light conditions versus the compound of formula 1 [3]: significantly higher | Blood drug concentration (AUC) [4]: 999 ng·h/mL

COc1cc(F)ccc1-c1c(C)sc2cnc(Nc3cnn(C4CCNCC4)c3)nc12 [The crystal form B of the adipate of fused ring pyrimidine c]
pH value of sample solution for solubility ([1]; medium Purified water): 7.09 | Solubility (calculated by free base of the fused ring pyrimidine compound) ([1]; medium Purified water): 0.463 | pH value of sample solution for solubility [1, 5]: 5.2 | Solubility (calculated by free base of the fused ring pyrimidine compound) [1, 5]: 1.46 | pH value of sample solution for solubility [1, 6]: 4.85 | Solubility (calculated by free base of the fused ring pyrimidine compound) [1, 6]: 0.104 | pH value of sample solution for solubility [1, 7]: 6.01 | Solubility (calculated by free base of the fused ring pyrimidine compound) [1, 7]: 0.035 | solubility in pure water compared to free base [1]: significantly improved | DVS weight gain from 0% RH to 95% RH [2]: 2.751% | Impurity content ([3]; Day 0): 0.24% | Impurity content ([3]; Day 20, 25° C/60% RH): 0.22% | Impurity content ([3]; Day 20, 40° C/75% RH): 0.22% | Impurity content ([3]; Day 20, 60° C): 0.23% | Impurity content ([3]; Day 20, Light (4500 lx±500 lx)): 0.42% | chemical stability in the condition of high temperature and high humidity [3]: good chemical stability | stability under light conditions versus the compound of formula 1 [3]: significantly higher | Blood drug concentration (AUC) [4]: 1038 ng·h/mL

— US11352368B2, “Salt of fused ring pyrimidine compound, crystal form thereof and preparation method therefor and use thereof” (GUANGZHOU MAXINOVEL PHARMACEUTICALS CO., LTD., priority 2018, dated 2022)
